This passage reports half-life, Tmax and solubility results from patent US10780099B2, “Injectable neurosteroid formulations containing nanoparticles” (MARINUS PHARMACEUTICALS, INC., priority 2015, dated 2020).

Where two headings read alike, the source gives them in different places.

The conditions of data set [1]: cited from earlier work.

As for `CC(=O)[C@H]1CC[C@H]2[C@@H]3CC[C@H]4C[C@H](O)CC[C@]4(C)[C@H]3CC[C@]12C` [Allopregnanolone, 3α,5α-tetrahydroprogesterone], the half-life result in data set [1] (human plasma) is recorded as “about 45 minutes”.
The solubility is the dissolved amount per volume that the medium holds. High values mean much dissolved substance, low ones little dissolved substance. Take `CC(=O)[C@H]1CC[C@H]2[C@@H]3CC[C@H]4C[C@](C)(O)CC[C@]4(C)[C@H]3CC[C@]12C` [Ganaxolone, 3α-hydroxy, 3β-methyl-5α-pregnan-20-one]: the half-life entry in data set [1] (human plasma following oral administration) is “approximately 20 hours”. For the same compound, the Tmax result in data set [1] (in vivo) is given as “short”. Moreover, the solubility in the data set “Solubility in water” was < 1 µg/mL.
